This is an account of results in US20110059909A1, “METHODS FOR TREATING INFLAMMATORY DISORDERS” (priority 2004, published 2011).

In one data set the test system is X-ALD patients. The conditions noted are these: cited from earlier work.
For another data set, the system named is ERK1/2. The experiment in a line: ERK1/2 activation (phospho-ERK1/2 immunoblot) in primary astrocytes. Type of data set: cell-based, rat. The settings on record: pretreated 0.5 h, TNFα 20 min. The method, then: (§1) For iNOS protein, the cells were washed with cold Tris buffered saline (TBS; 20 mM Trizma base, and 137 mM NaCl, pH 7.5), lysed in 1×SDS sample loading buffer (62.5 mM Trizma base, 2% w/v SDS, 10% glycerol), following sonication and centrifugation at 15,000×g for 5 min, the supernatant was used for the iNOS western immunoblot assay. The protein concentration of samples was determined with the detergent compatible protein assay reagent (Bio-Rad Laboratories, CA) using bovine serum albumin (BSA) as the standard. Sample was boiled for 3 min with 0.1 volumes of 10% β-mercaptoethanol and 0.5% bromophenol blue mix. Fifty μg of total cellular protein was resolved by electrophoresis on 8 or 12% polyacrylamide gels, electro-transferred to polyvinylidene difluoride (PVDF) filter and blocked with Tween 20 containing Tris-buffered saline (TBST; 10 mM Trizma base-pH 7.4, 1% Tween 20, and 150 mM NaCl) with 5% skim milk. After incubation with antiserum against iNOS (BD PharMingen, CA), rat GalT-2 (Abjent Inc., CA), H-Ras (Upstate Biotechnology, CA), GFAP (Santa Cruz Biotech, CA), or phospho-specific ERK1/2 (Cell signaling Tech Inc., MA), or pIκ-B (Signal Transduction), in PVDF buffer for 2 h at room temperature, the filters were washed 3 times with TBST buffer and then incubated with horseradish peroxidase conjugated anti-rabbit or mouse IgG for 1 h. The membranes were detected by autoradiography using ECL-plus (Amersham Pharmacia Biotech) after washing with TBST buffer.

The next data set concerns GalT-2. The experiment in a line: GalT-2 activity assay on cell lysates. Type of data set: cell-based, rat. The conditions noted are these: LY pretreatment. The procedure: The activity of GalT-2 was measured using [^3H]UDP-galactose as the galactose donor and GlcCer as the acceptor as described previously (Yeh et al., 2001). Briefly, cells were harvested in PBS and cell pellets were suspended in Triton X-100 lysis buffer. Cell lysates were sonicated and following protein quantification, 100 μg of cell lysate was added to reaction mixture containing […] of cacodylate buffer (pH 6.8), 1 mM Mn/Mg, 0.2 mg/ml Triton X-100 (1:2 v/v), 30 nmol of GluCer and […] of UDP-[^3H]galactose in a total volume of 100 μl. The reaction was terminated by adding 10 μl of 0.25M EDTA, 10 μl of 0.5M KCl and 500 μl of Chloroform/Methanol (2:1 v/v) and the products were separated by centrifugation. The lower phase was collected and dried under nitrogen. Following resolution on HPTLC plates, the gel was cut out and radioactivity was measured in a scintillation counter. Assay without exogenous GluCer served as blank and their radioactivity counts were subtracted from all respective data points.

A further data set addresses T1, LacCer synthase (GalT-2) (Rattus norvegicus, UniProt O88419).
T1 construct: using cell lysates derived from cells stimulated with LPS/IFNγ; endogenous in cells; host or cells: rat primary astrocytes
T1 sequence (O88419 1-382): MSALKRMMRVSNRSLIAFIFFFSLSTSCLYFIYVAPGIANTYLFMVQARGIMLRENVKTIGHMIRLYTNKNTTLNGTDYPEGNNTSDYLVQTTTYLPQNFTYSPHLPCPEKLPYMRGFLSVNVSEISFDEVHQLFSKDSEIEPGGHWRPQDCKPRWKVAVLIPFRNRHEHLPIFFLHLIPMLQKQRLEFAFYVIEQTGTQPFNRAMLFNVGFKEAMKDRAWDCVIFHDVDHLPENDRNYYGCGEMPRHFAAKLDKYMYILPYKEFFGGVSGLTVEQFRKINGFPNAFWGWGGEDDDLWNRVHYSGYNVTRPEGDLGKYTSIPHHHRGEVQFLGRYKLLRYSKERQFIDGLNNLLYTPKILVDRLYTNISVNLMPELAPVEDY
In words: Measurement of [14C]LacCer synthesis in primary astrocytes (HPTLC). Format: cell-based. The settings on record: TNFα 1 ng/ml. The procedure: Cultured cells were incubated in growth medium containing [^14C]galactose (5 μCi/ml) for 24 h as described previously. The medium was removed, and the cell monolayer was washed with sterile PBS. After the stimulation with LPS/IFNγ (1 μg/ml; 10 U/ml) for various durations, cells were then harvested and washed with ice cold PBS and lysed by sonication. 200 μg of protein was used for extraction of lipids using Chloroform:Methanol:HCl (100:100:1). The organic phase was dried under nitrogen. Glycosphingolipids were resolved by high performance thin layer chromatography using chloroform/methanol/0.25% KCl (70:30:4, v/v/v) as the developing solvent. The gel area corresponding to LacCer was scraped, and radioactivity was measured employing “liquiscint” (NEN Life Science Products) as a scintillating fluid.

In another data set the test system is small GTPase Ras. The experiment in a line: Quantification of Ras activation (GST-Raf-1 RBD pull-down) in primary astrocytes. Type of data set: cell-based, rat. The settings on record: pretreated 0.5 h, TNFα. The method, then:
After stimulation, primary astrocytes in 6-well plates were washed with ice cold PBS and lysed in membrane lysis buffer (MLB; 0.5 ml of 25 mM HEPES, pH 7.5, 150 mM NaCl, 1% Igepal CA-630, 0.25% sodium deoxycholate, 10% glycerol, 10 mM MgCl2, 1 mM EDTA, 25 mM NaF, 1 mM of sodium orthovanadate, and EDTA free Complete™ protease inhibitor cocktail). After centrifugation (5,000×g) at 4° C. for 5 min, supernatant was used for Ras activation assay. One hundred μg of supernatant was used for binding with agarose conjugated Ras-binding domain (RBD) of Raf-1 which was expressed in BL21 (Invitrogen), Escherichia coli strain, transformed by pGEX-2T-GST-RBD in the presence of 0.1 mM of IPTG as described previously (Herrmann et al., 1995). The binding reaction was performed at 4° C. for 30 min in MLB. Following washing with MLB three times, Ras-RBD complex were denatured by adding of 2×SDS sample buffer. Ras protein was identified by western blot analysis with Ras antibodies from Upstate Biotechnology.

The next data set relates to GFAP. The experiment in a line: GFAP mRNA (real time PCR) and protein (immunoblot) in TNFα-stimulated primary astrocytes. Format: cell-based, rat. The settings on record: TNFα 1 ng/ml; mRNA 8 h, protein 18 h. The procedure:
as §1
Background: In qPCR the cycle at which signal appears reflects the starting amount.

In the next data set the test system is rat primary astrocytes. In words: BrdU incorporation assay, proliferation of primary astrocytes. Format: cell-based. The settings on record: pretreated 0.5 h (AS: 48 h after transfection), TNFα 1 ng/ml 18 h, BrdU incorporation. The procedure: Primary astrocyte-enriched cultures were prepared from the whole cortex of one day old Sprague-Dawley rats as described earlier (Pahan et al., 1998b). Briefly, the cortex was rapidly dissected in ice-cold calcium/magnesium free Hanks Balanced Salt Solution (HBSS) (Gibco, Grand Island, N.Y.) at pH 7.4 as described previously (Won et al., 2001). The tissue was then minced, incubated in HBSS containing trypsin (2 mg/ml) for 20 min and washed twice in plating medium containing 10% FBS and 10 μg/ml gentamicin, and then disrupted by triturating through a Pasteur pipette following which cells were seeded in 75-cm^2 culture flasks (Falcon, Franklin, N.J.). After incubation at 37° C. in 5% CO2 for 1 day, the medium was completely changed to the culture medium (DMEM containing 5% FBS and 10 μg/ml gentamicin). The cultures received half exchanges with fresh medium twice a week. After 14-15 days the cells were shaken for at least 24 h on an orbital shaker to remove the microglia and then seeded on multi-well tissue culture dishes. The cells were incubated with serum-free DMEM for 24 h prior to the incubation with drugs.
Proliferation of primary astrocytes was assayed by using the Cell proliferation ELISA, BrdU colorimetric assay kit (Roche, Germany) according to manufacturer's protocol. Briefly, cells were seeded in 96 well plates in quadruplicate and following overnight serum starvation were stimulated with mitogenic stimulants. 2 h before termination of proliferation assay, BrdU (10 μM) was added to each well following which cells were fixed and levels of incorporated BrdU were assayed by using a conjugated anti-BrdU enzyme. Colorimetric analysis was done by measuring absorbance at 370 nm using a spectramax MAX 190 (Molecular devices) multi-well plate reading spectrophotometer.
Background: Incorporation of labelled thymidine or its analogues reports DNA synthesis.

Data set [1] concerns primary cultured rat neocortical explants. The conditions noted are these: cited from earlier work.
The next data set deals with mice. The conditions noted are these: cited from earlier work.
Data set [2] concerns primary cultured rat neocortical explants. The conditions noted are these: cited from earlier work. The source holds these as a separate data set.

For the compound `CCCCCCCC/C=C\CCCCCCCC(=O)OCC(COC(=O)CCCCCCC/C=C\CCCCCCCC)OC(=O)CCCCCCC/C=C\CCCCCCCC` [trioleate], the “Reduction of VLCFA” value in the data set with X-ALD patients is 50%.

For the compound `O=c1cc(N2CCOCC2)oc2c(-c3ccccc3)cccc12` [LY, 2-(4-Morpholinyl)-8-phenyl-4H-1-benzopyran-4-one], the “TNFα-induced ERK1/2 phosphorylation” value in the data set with ERK1/2 was “inhibited”. In addition, the “TNFα-induced GalT-2 activation” value in the data set on GalT-2 is “inhibition”. In addition, at LacCer synthase (GalT-2), the “[14C]LacCer synthesis upon TNFα-stimulation” value is given as “inhibited”. Also, the “TNFα-induced Ras activation” value in the data set with small GTPase Ras is on record as “inhibited”. The “TNFα-induced GFAP mRNA and protein expression” value in the data set with GFAP was “inhibited”. For the same compound, in the data set with rat primary astrocytes, the TNFα-induced astrocyte proliferation entry was “significantly attenuated”.

Turning to `CCCCCCCCCC(=O)N[C@@H](CN1CCOCC1)[C@@H](O)c1ccccc1` [L-threo PDMP], the Neurite outgrowth result in [1] is given as “stimulated”. The “LD50 values, L-threo PDMP compared to D-threo PDMP” value in the data set on mice is reported as “higher”. In addition, the GSL biosynthesis result in [2] is on record as “stimulated”.
